The values that follow come from the METLIN SMRT retention time set (Domingo-Almenara et al. 2019).

This data set is described as follows: gradient 5% acetonitrile 3 min, to 50% in 2 min, to 85% in 15 min, held 3 min, 100 µL/min. To be noted: column: Zorbax Extend-C18 2.1 x 50 mm; eluents: water / acetonitrile, 0.1% formic acid. The method in brief:
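Standards, all pure, were combined into mixtures of ~100 molecules and run at 100 μL/min on a Zorbax Extend-C18 column (2.1 × 50 mm, 1.8 μm) with water and acetonitrile, each containing 0.1% formic acid. A coupled quadrupole time-of-flight mass spectrometer operated in positive and negative ionization mode. Retention time values come from computationally picked adduct peaks, each inspected manually.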
In turn, `CC(C)Cc1cc(-c2nn3c(-c4ccc(F)cc4)nnc3s2)n[nH]1` displayed an RP-LC retention time of 1010 s.

As to `CCn1c(=O)c(N2CCN(C(=O)NCc3ccco3)CC2)nc2ccccc21`, the RP-LC retention time worked out at 811 s.

For the compound `CCOC(=O)c1ccc(NC(=O)Nc2cccs2)cc1`, the RP-LC retention time is 888 s.

As to `CSc1ccccc1NC(=O)C(=O)NCC1CCN(C(=O)COc2ccccc2)CC1`, the RP-LC retention time stood at 754 s.

The compound `COc1ccc(NC(=O)N2C[C@@H]3C[C@H](NS(C)(=O)=O)[C@H]2C3)c(C)c1` came in with an RP-LC retention time of 652 s.

Consider `O=C(NC1CCCCC1N1C(=O)CSC1=O)c1cc(Cl)ccc1Cl` (centres undefined), for which the RP-LC retention time is 810 s.

For `COc1ccc(OC)c(CNC(=O)c2nc(N3CCOCC3)c3ccccc3n2)c1`, the RP-LC retention time stood at 686 s.

In the case of `CCNC(=O)Nc1ccc2c(c1)CN(Cc1scnc1C)CCO2`, the RP-LC retention time came out at 566 s.

The compound `COc1ccc(C(CC(=O)N2CCN(C)CC2)N2Cc3ccccc3C2=O)cc1OC` (centres undefined) registered an RP-LC retention time of 609 s.

With `CC1CCN(C(=O)Cn2c(CNC(=O)c3ccco3)nc3ccccc32)CC1`, the RP-LC retention time was determined as 650 s.

For `CCNc1nc(C)cc(N2CCN(S(=O)(=O)c3cccc(C(F)(F)F)c3)CC2)n1`, the RP-LC retention time stood at 754 s.

For the compound `CC(C)CC(=O)N1CCc2cc(CNS(=O)(=O)c3ccc4c(c3)CC(=O)N4C)ccc21`, the RP-LC retention time worked out at 793 s.

On to `CC1CCCN(c2nn(CC(=O)Nc3cccc(C(C)C)c3)c(=O)c3ccccc23)C1` (centres undefined), for which the RP-LC retention time came to 1300 s.

In turn, `COc1ccc2nc(C)cc(SCC(=O)Nc3csc4nc(=O)c(C)nn34)c2c1` came in with an RP-LC retention time of 590 s.

`NC(=O)C1CCN(C(=O)c2ccc3c(c2)CCN3S(=O)(=O)c2ccc(Cl)cc2)CC1` registered an RP-LC retention time of 711 s.

With `Cc1cccc(C)c1Nc1c(-c2ccc(N3CCOCC3)cc2)nc2cnc(Br)cn12`, the RP-LC retention time came to 1100 s.

For `CCCc1ccc(S(=O)(=O)N2CC=C(c3cn(C)c4ncccc34)CC2)cc1`, the RP-LC retention time worked out at 1030 s.

Turning to `O=C(Cc1csc(Nc2cccc(C(F)(F)F)c2)n1)NCc1cccs1`, the RP-LC retention time stood at 886 s.

On to `O=C1NC(C(=O)NCc2cccs2)Cn2cccc21` (centres undefined), for which the RP-LC retention time is 620 s.

`CCn1ccc(C(=O)Nc2nnc(CSc3ccccc3)o2)n1` yielded an RP-LC retention time of 712 s.

Consider `COc1ccc2c(c1)C1(CCN(C(=O)C(C)(C)C)C1)C(=O)N2C` (centres undefined), for which the RP-LC retention time came to 764 s.

Compound `Cc1cc(NC(=O)C(=O)NCC(O)c2cccc3ccccc23)no1` (centres undefined) yielded an RP-LC retention time of 734 s.

As to `COc1cc(-c2nnc(-c3cccc(S(=O)(=O)N4CCC(C)CC4)c3)o2)cc(OC)c1OC`, the RP-LC retention time was 755 s.

As for `CC1(C(=O)NCc2ccccc2)CCCN(C(=O)Nc2ccc(Br)cc2)C1` (centres undefined), the RP-LC retention time turned out to be 980 s.

As to `CCC(C)NC(=O)CCCn1c(=O)c2cccn2c2ccccc21` (centres undefined), the RP-LC retention time turned out to be 760 s.

Compound `CCN1C[C@H](C)n2c(c(O)c3c(=O)n(Cc4ccc(F)c(Cl)c4)nc(C(=O)NC)c32)C1=O` registered an RP-LC retention time of 871 s.

Turning to `CC1CCCN(c2nc(C(=O)NC(C)C)cs2)C1` (centres undefined), the RP-LC retention time is 1020 s.

In turn, `CCC1CN2C=NC(N3CCN(C(=O)Nc4cccc(F)c4C)CC3)=CC2=N1` (centres undefined) returned an RP-LC retention time of 671 s.

For the compound `CCCC(NC(=O)c1ccsc1)C(=O)Nc1nc2ccccc2[nH]1` (centres undefined), the RP-LC retention time was 667 s.

Compound `O=C(c1ccc(-c2cccnc2)nc1)N1CCN(c2ccc(Cl)cc2)CC1` yielded an RP-LC retention time of 746 s.

Compound `COCCNC(=O)C1CCN(c2nccnc2Sc2cccc(C)c2)CC1` returned an RP-LC retention time of 826 s.

Regarding `CC1CCC(NC(=O)C2c3ccccc3C(=O)N2CCCN2CCOCC2)CC1` (centres undefined), the RP-LC retention time was 640 s.

`O=C(NCCc1c[nH]c2ccccc12)c1cc(-c2ccccn2)nc2ccccc12` registered an RP-LC retention time of 868 s.

On to `CCc1nc2c(NC(=O)c3sccc3C)cccn2n1`, for which the RP-LC retention time was 831 s.

Take `COc1ccc(Cl)cc1-n1nnc(C(=O)NC2CC2)c1-c1ccncc1`: the RP-LC retention time amounted to 715 s.

In turn, `Cc1cccc(Sc2nccnc2N2CCC(C(=O)NCCC(C)C)CC2)c1` returned an RP-LC retention time of 1100 s.

`CN(C)c1cccc(F)c1C(=O)NC(=O)Nc1ccc(Cl)cc1` had an RP-LC retention time of 990 s.

`CCc1nc(-c2csc(S(=O)(=O)N3CCCC(C(=O)Nc4cc(Cl)ccc4C)C3)c2)no1` (centres undefined) registered an RP-LC retention time of 1130 s.

As to `CNC(=O)C1CCN(Cc2cc3ccccc3n2Cc2ccc(C)cc2)CC1`, the RP-LC retention time was found to be 693 s.

The compound `CC(C)C(=O)Nc1ccc(C2(C(=O)NCc3ccccn3)CCC2)cc1` displayed an RP-LC retention time of 611 s.

As for `Cc1c(S(=O)(=O)Nc2cccc(-c3ccc4ccccc4n3)c2)cnn1C(F)F`, the RP-LC retention time is 947 s.

Regarding `O=C(CC(F)(F)F)N1CCCC(CCc2nnc(-c3cnccn3)o2)C1` (centres undefined), the RP-LC retention time was found to be 717 s.

Compound `O=C(Nc1nnc(SCc2nnc(-c3ccccc3)o2)s1)c1cccc(Cl)c1` had an RP-LC retention time of 977 s.

In turn, `c1cncc(-c2n[nH]c(C3CCCN(Cc4ccsc4)C3)n2)c1` (centres undefined) showed an RP-LC retention time of 552 s.

For `Cc1cc(C)cc(NS(=O)(=O)c2cc3n(c2)CCN(CC(C)C)C3=O)c1`, the RP-LC retention time amounted to 869 s.

In turn, `CCN1CCN(c2cc(C(=O)O)c3cc(NS(=O)(=O)c4ccccc4C)ccc3n2)CC1` came in with an RP-LC retention time of 618 s.

Compound `CCn1nnc(NCc2ccc(-c3ccc(Cl)cc3Cl)o2)n1` gave an RP-LC retention time of 1130 s.

In turn, `Cc1ccccc1Nc1c(-c2ccc(Cl)cc2)nc2ncccn12` registered an RP-LC retention time of 908 s.

For `COc1ccc(-c2cn3c(CC(=O)NCc4ccc(C)o4)csc3n2)cc1OC`, the RP-LC retention time turned out to be 686 s.

With `O=C1NC2(CCN(C(=O)c3ccc4ccccc4c3)CC2)N=C1c1ccccc1`, the RP-LC retention time was determined as 859 s.

Regarding `COc1ccc(CN2C=C(C(=O)OCc3noc(-c4ccc(OC)cc4)n3)C(C)=NS2(=O)=O)cc1`, the RP-LC retention time was 1110 s.

`CCCSCCCNC(=O)Cn1c(=O)c(C)nc2cc(C)c(C)cc21` showed an RP-LC retention time of 828 s.

For `COc1ccc(S(=O)(=O)Nc2nc(C(=O)Nc3cccc(Cl)c3)cs2)cc1`, the RP-LC retention time stood at 844 s.

In turn, `C=Cc1ccc(Cn2nc3c(S(=O)(=O)N4CCN(c5ccc(F)cc5)CC4)cccn3c2=O)cc1` yielded an RP-LC retention time of 1010 s.

Take `COc1ccc(NC(=O)C2CC(=O)N(c3ccc4c(c3)CCN4C(=O)C3CC3)C2)cc1F` (centres undefined): the RP-LC retention time turned out to be 770 s.

Compound `CCCCNC(=O)CN1C(=O)CCn2nc(-c3cn(C)c4ccccc34)cc21` returned an RP-LC retention time of 771 s.

The compound `CCn1cc(-c2ccncc2)cc1C(=O)NCc1ccc(SC)cc1` registered an RP-LC retention time of 689 s.

`C=CCN1CCc2cccc3c2[C@H]1Cc1ccc(O)c(O)c1-3` had an RP-LC retention time of 659 s.

The compound `COc1ccc(NC(=O)c2cc(S(=O)(=O)N3CCC(C)CC3)cn2C)c(OC)c1` gave an RP-LC retention time of 1020 s.
